In patent US10913727B2, “Modulators of the integrated stress pathway” (Calico Life Sciences LLC, priority 2016, dated 2021) one finds EC50 data, which are given here for 30 molecules.

SMILES strings stand for the structures. Where only a bound is given, the exact number is not on record here.

The subject of the test is HEK293T cells carrying the ATF4 luciferase reporter. Kind of test: ATF4-Luc assay, in vitro model of Vanishing Cell White Matter Disease (VWMD). Conditions: Homo sapiens, HEK-293T, 1 μg/mL tunicamycin, 7 hours, One Glo luminescence. In kind it is cell-based. On the procedure: In order to test exemplary compounds of the invention in a cellular context, a stable VWMD cell line was first constructed. The ATF4 reporter was prepared by fusing the human full-length ATF4 5′-UTR (NCBI Accession No. BC022088.2) in front of the firefly luciferase (FLuc) coding sequence lacking the initiator methionine as described in Sidrauski et al (eLife 2013). The construct was used to produce recombinant retroviruses using standard methods and the resulting viral supernatant was used to transduce HEK293T cells, which were then subsequently selected with puromycin to generate a stable cell line.
HEK293T cells carrying the ATF4 luciferase reporter were plated on polylysine coated 384-well plates (Greiner Bio-one) at 30,000 cells per well. Cells were treated the next day with 1 μg/mL tunicamycin and 200 nM of a compound of Formula (I) for 7 hours. Luminescence was measured using One Glo (Promega) as specified by the manufacturer. Cells were maintained in DMEM with L-glutamine supplemented with 10% heat-inactivated FBS (Gibco) and Antibiotic-Antimycotic solution (Gibco).
Table 2 below summarizes the EC50 data obtained using the ATF4-Luc assay for exemplary compounds of the invention.
On to `O=C(COc1ccc(Cl)c(F)c1)NC12CC(NC(=O)c3ccc(C4=CCOCC4)nc3)(C1)C2` [Compound 155, N-{3-[2-(4-chloro-3-fluorophenoxy)acetamido]bicyclo[1.1.1]pentan-1-yl}-6-(3,6-dihydro-2H-pyran-4-yl)pyridine-3-carboxamide], for which the 50% effective concentration (EC50) (usually the concentration at which the effect is half-maximal) lay in the range of 1000 to 2000 nM.
`O=C(COc1ccc(Cl)c(Cl)c1)NC12CC(NC(=O)c3ccccn3)(C1)C2` [Compound 156, N-{3-[2-(3,4-dichlorophenoxy)acetamido]bicyclo[1.1.1]pentan-1-yl}pyridine-2-carboxamide]: the concentration for a half-maximal effect (EC50) was 50 to 250 nM.
Regarding `CC(C)(C)[Si](C)(C)OCCOc1ccc(C(=O)NC23CC(NC(=O)COc4ccc(Cl)c(F)c4)(C2)C3)cn1` [Compound 157, 6-(2-{[tert-butyl(dimethyl)silyl]oxy}ethoxy)-N-{3-[2-(4-chloro-3-fluorophenoxy)acetamido]bicyclo[1.1.1]pentan-1-yl}pyridine-3-carboxamide], the EC50 was above 2000 nM.
To `O=C(COc1ccc(Cl)c(Cl)c1)NC12CC(NC(=O)c3ccc(OCCO)nc3)(C1)C2` [Compound 158, N-{3-[2-(3,4-dichlorophenoxy)acetamido]bicyclo[1.1.1]pentan-1-yl}-6-(2-hydroxyethoxy)pyridine-3-carboxamide] belongs 250 to 1000 nM; to `O=C(COc1ccc(Cl)c(F)c1)NC12CC(NC(=O)c3ccc(CO)cn3)(C1)C2` [Compound 159, N-{3-[2-(4-chloro-3-fluorophenoxy)acetamido]bicyclo[1.1.1]pentan-1-yl}-5-(hydroxymethyl)pyridine-2-carboxamide], 250 to 1000 nM.
To `O=C(COc1ccc(Cl)c(Cl)c1)NC12CC(NC(=O)c3ccc(CO)cn3)(C1)C2` [Compound 160, N-{3-[2-(3,4-dichlorophenoxy)acetamido]bicyclo[1.1.1]pentan-1-yl}-5-(hydroxymethyl)pyridine-2-carboxamide] belongs 250 to 1000 nM.
To `O=C(COc1ccc(Cl)c(F)c1)NC12CC(NC(=O)c3ccc(OCCO)nc3)(C1)C2` [Compound 161, N-{3-[2-(4-chloro-3-fluorophenoxy)acetamido]bicyclo[1.1.1]pentan-1-yl}-6-(2-hydroxyethoxy)pyridine-3-carboxamide] belongs 1000 to 2000 nM.
On to `Cc1cnc(C(=O)NC23CC(NC(=O)COc4ccc(C(F)(F)F)nc4)(C2)C3)cn1` [Compound 162, 5-methyl-N-[3-(2-{[6-(trifluoromethyl)pyridin-3-yl]oxy}acetamido)bicyclo[1.1.1]pentan-1-yl]pyrazine-2-carboxamide], for which the EC50 is above 2000 nM.
The same measure for `O=C(COc1ccc(Cl)c(F)c1)NC12CC(NC(=O)c3cnc(C4=CCC(O)CC4)o3)(C1)C2` (stereo not drawn) [Compound 163, N-{3-[2-(4-chloro-3-fluorophenoxy)acetamido]bicyclo[1.1.1]pentan-1-yl}-2-(4-hydroxycyclohex-1-en-1-yl)-1,3-oxazole-5-carboxamide]: 1000 to 2000 nM.
To `O=C(COc1ccc(Cl)c(Cl)c1)NC12CC(NC(=O)c3cnccn3)(C1)C2` [Compound 164, N-{3-[2-(3,4-dichlorophenoxy)acetamido]bicyclo[1.1.1]pentan-1-yl}pyrazine-2-carboxamide] belongs 50 to 250 nM.
To `O=C(COc1ccc(Cl)c(Cl)c1)NC12CC(NC(=O)c3cccc(CO)n3)(C1)C2` [Compound 165, N-{3-[2-(3,4-dichlorophenoxy)acetamido]bicyclo[1.1.1]pentan-1-yl}-6-(hydroxymethyl)pyridine-2-carboxamide] belongs above 2000 nM; to `O=C(COc1ccc(Cl)c(Cl)c1)NC12CC(NC(=O)c3cc(CO)ccn3)(C1)C2` [Compound 166, N-{3-[2-(3,4-dichlorophenoxy)acetamido]bicyclo[1.1.1]pentan-1-yl}-4-(hydroxymethyl)pyridine-2-carboxamide], 50 to 250 nM; to `O=C(COc1ccc(Cl)c(F)c1)NC12CCC(NC(=O)c3ccccn3)(CC1)C(O)C2` (stereo not drawn) [Compound 167, N-{4-[2-(4-chloro-3-fluorophenoxy)acetamido]-2-hydroxybicyclo[2.2.2]octan-1-yl}pyridine-2-carboxamide], 50 to 250 nM.
As to `O=C(COc1ccc(Cl)c(F)c1)NC12CCC(NC(=O)c3ccc(F)cn3)(CC1)C(O)C2` (stereo not drawn) [Compound 168, N-{4-[2-(4-chloro-3-fluorophenoxy)acetamido]-2-hydroxybicyclo[2.2.2]octan-1-yl}-5-fluoropyridine-2-carboxamide], the concentration giving a half-maximal response (EC50) lay within 50 to 250 nM.
Consider `Cc1ccc(C(=O)NC23CCC(NC(=O)COc4ccc(Cl)c(F)c4)(CC2)CC3O)nc1` (stereo not drawn) [Compound 169, N-{4-[2-(4-chloro-3-fluorophenoxy)acetamido]-2-hydroxybicyclo[2.2.2]octan-1-yl}-5-methylpyridine-2-carboxamide], for which the half-maximal effective concentration (EC50) was in the range of 50 to 250 nM.
The same measure for `N#Cc1ccc(C(=O)NC23CCC(NC(=O)COc4ccc(Cl)c(F)c4)(CC2)CC3O)nc1` (stereo not drawn) [Compound 170, N-{4-[2-(4-chloro-3-fluorophenoxy)acetamido]-2-hydroxybicyclo[2.2.2]octan-1-yl}-5-cyanopyridine-2-carboxamide]: 50 to 250 nM; for `COC/C=C/c1cnc(C(=O)NC23CC(NC(=O)COc4ccc(Cl)c(F)c4)(C2)C3)cn1` [Compound 171, N-{3-[2-(4-chloro-3-fluorophenoxy)acetamido]bicyclo[1.1.1]pentan-1-yl}-5-[(1E)-3-methoxyprop-1-en-1-yl]pyrazine-2-carboxamide]: 50 to 250 nM; for `COCCCc1cnc(C(=O)NC23CC(NC(=O)COc4ccc(Cl)c(F)c4)(C2)C3)cn1` [Compound 172, N-{3-[2-(4-chloro-3-fluorophenoxy)acetamido]bicyclo[1.1.1]pentan-1-yl}-5-(3-methoxypropyl)pyrazine-2-carboxamide]: 250 to 1000 nM.
To `N#Cc1ccc(C(=O)NC23CC(NC(=O)COc4ccc(Cl)c(F)c4)(C2)C3)nc1` [Compound 173, N-{3-[2-(4-chloro-3-fluorophenoxy)acetamido]bicyclo[1.1.1]pentan-1-yl}-5-cyanopyridine-2-carboxamide] belongs 50 to 250 nM.
The same measure for `COCc1cccc(C(=O)NC23CC(NC(=O)COc4ccc(Cl)c(F)c4)(C2)C3)n1` [Compound 174, N-{3-[2-(4-chloro-3-fluorophenoxy)acetamido]bicyclo[1.1.1]pentan-1-yl}-6-(methoxymethyl)pyridine-2-carboxamide]: 250 to 1000 nM.
As to `O=C(COc1ccc(Cl)c(F)c1)NC12CC(NC(=O)c3cnccn3)(C1)C2` [Compound 175, N-{3-[2-(4-chloro-3-fluorophenoxy)acetamido]bicyclo[1.1.1]pentan-1-yl}pyrazine-2-carboxamide], the 50% effective concentration (EC50) was in the range of 250 to 1000 nM.
The same measure for `O=C(COc1ccc(Cl)c(F)c1)NC12CC(NC(=O)c3cc(C(F)(F)F)ccn3)(C1)C2` [Compound 176, N-{3-[2-(4-chloro-3-fluorophenoxy)acetamido]bicyclo[1.1.1]pentan-1-yl}-4-(trifluoromethyl)pyridine-2-carboxamide]: 50 to 250 nM; for `COc1ccnc(C(=O)NC23CC(NC(=O)COc4ccc(Cl)c(F)c4)(C2)C3)c1` [Compound 177, N-{3-[2-(4-chloro-3-fluorophenoxy)acetamido]bicyclo[1.1.1]pentan-1-yl}-4-methoxypyridine-2-carboxamide]: 250 to 1000 nM; for `O=C(COc1ccc(Cl)c(F)c1)NC12CC(NC(=O)c3cc(CO)ccn3)(C1)C2` [Compound 178, N-{3-[2-(4-chloro-3-fluorophenoxy)acetamido]bicyclo[1.1.1]pentan-1-yl}-4-(hydroxymethyl)pyridine-2-carboxamide]: 50 to 250 nM.
The same measure for `O=C(COc1ccc(Cl)c(F)c1)NC12CC(NC(=O)c3cc(N4CC(O)C4)ccn3)(C1)C2` [Compound 179, N-{3-[2-(4-chloro-3-fluorophenoxy)acetamido]bicyclo[1.1.1]pentan-1-yl}-4-(3-hydroxyazetidin-1-yl)pyridine-2-carboxamide]: 250 to 1000 nM; for `O=C(COc1ccc(Cl)c(F)c1)NC12CC(NC(=O)c3cc(N4CCOCC4)ccn3)(C1)C2` [Compound 180, N-{3-[2-(4-chloro-3-fluorophenoxy)acetamido]bicyclo[1.1.1]pentan-1-yl}-4-(morpholin-4-yl)pyridine-2-carboxamide]: 1000 to 2000 nM.
The same measure for `O=C(COc1ccc(Cl)c(F)c1)NC12CC(NC(=O)c3cc(N4CCCC4)ccn3)(C1)C2` [Compound 181, N-{3-[2-(4-chloro-3-fluorophenoxy)acetamido]bicyclo[1.1.1]pentan-1-yl}-4-(pyrrolidin-1-yl)pyridine-2-carboxamide]: 250 to 1000 nM.
Regarding `N#Cc1ccnc(C(=O)NC23CC(NC(=O)COc4ccc(Cl)c(F)c4)(C2)C3)c1` [Compound 182, N-{3-[2-(4-chloro-3-fluorophenoxy)acetamido]bicyclo[1.1.1]pentan-1-yl}-4-cyanopyridine-2-carboxamide], the EC50 was in the range of 50 to 250 nM.
To `O=C(COc1ccc(Cl)c(F)c1)NC12CC(NC(=O)c3cc(O)ccn3)(C1)C2` [Compound 183, N-{3-[2-(4-chloro-3-fluorophenoxy)acetamido]bicyclo[1.1.1]pentan-1-yl}-4-hydroxypyridine-2-carboxamide] belongs 1000 to 2000 nM; to `O=C(COc1ccc(Cl)c(F)c1)NC12CC(NC(=O)c3cnc(O)cn3)(C1)C2` [Compound 184, N-{3-[2-(4-chloro-3-fluorophenoxy)acetamido]bicyclo[1.1.1]pentan-1-yl}-5-hydroxypyrazine-2-carboxamide], above 2000 nM.
